Test results taken from patent US8901036B2, “Combinations of phenylsulfonylurea herbicides and safeners” (Bayer Cropscience AG, priority 1994, dated 2014).

Assays:
Barley = assay: Phytotoxicity of herbicide/safener combinations in cereals, glasshouse post-emergence; type: in vivo; conditions: no safener, 4 weeks after treatment
Protocol: (§1) Various crop plants are grown in plastic pots with a diameter of 9 cm in a glasshouse to the stated stage and then treated with the particular herbicide or with a mixture of the herbicide and the safener by the post-emergence method. This entails the herbicide of the formula (A) and the compounds of the formula (B) being applied in the form of aqueous suspensions or emulsions with a water application rate which converts to 300 l/ha. 4 weeks after the treatment, the plants are assessed visually for every type of damage by the applied herbicides, taking particular account of the extent of persistent growth inhibition. The evaluation takes place in percentages (scale from 0 to 100%) compared with untreated controls.

Wheat = assay: as above; type: in vivo; conditions: no safener, 4 weeks after treatment
Protocol: as §1

APSP = assay: Herbicidal activity on grasses, post-emergence; type: in vivo, Apera spica-venti; conditions: no safener, 4-leaf stage
Protocol: as §1

POAN = assay: Herbicidal activity on grasses, post-emergence; type: in vivo, Poa annua; conditions: no safener, 4-leaf stage
Protocol: as §1

ALMY = assay: Herbicidal activity on grasses, post-emergence; type: in vivo, Alopecurus myosuroides; conditions: no safener, 4-leaf stage
Protocol: as §1

AVFA = assay: Herbicidal activity on grasses, post-emergence; type: in vivo, Avena fatua; conditions: no safener, 4-leaf stage
Protocol: as §1

| SMILES | Phytotoxicity Barley (Barley; dose A 10 g AS/ha) [%] | Phytotoxicity Barley (Barley; dose A 20 g AS/ha) [%] | Phytotoxicity Wheat (Wheat; dose A 10 g AS/ha) [%] | Phytotoxicity Wheat (Wheat; dose A 20 g AS/ha) [%] | Phytotoxicity Barley (Barley; dose A 40 g AS/ha) [%] | Phytotoxicity Wheat (Wheat; dose A 40 g AS/ha) [%] | % effect on APSP (APSP; dose A 10 g AS/ha) [%] | % effect on APSP (APSP; dose A 20 g AS/ha) [%] | % effect on APSP (APSP; dose A 40 g AS/ha) [%] | % effect on POAN (POAN; dose A 10 g AS/ha) [%] | % effect on POAN (POAN; dose A 20 g AS/ha) [%] | % effect on POAN (POAN; dose A 40 g AS/ha) [%] | % effect on ALMY (ALMY; dose A 10 g AS/ha) [%] | % effect on ALMY (ALMY; dose A 20 g AS/ha) [%] | % effect on ALMY (ALMY; dose A 40 g AS/ha) [%] | % effect on AVFA (AVFA; dose A 10 g AS/ha) [%] | % effect on AVFA (AVFA; dose A 20 g AS/ha) [%] | % effect on AVFA (AVFA; dose A 40 g AS/ha) [%] |
| --- | --- | --- | --- | --- | --- | --- | --- | --- | --- | --- | --- | --- | --- | --- | --- | --- | --- | --- |
| COC(=O)c1ccc(NC(C)=O)cc1S(=O)(=O)NC(=O)Nc1nc(OC)cc(OC)n1 [A1, N-(4,6-Dimethoxypyrimidin-2-ylaminocarbonyl)-2-methoxycarbonyl-5-acetylaminobenzenesulfonamide] | 50 | 80 | 25 | 50 |  |  |  |  |  |  |  |  |  |  |  |  |  |  |
| COC(=O)c1ccc(CN(C)C=O)cc1S(=O)(=O)NC(=O)Nc1nc(OC)cc(OC)n1.[Na] [A2, N-(4,6-Dimethoxypyrimidin-2-ylaminocarbonyl)-2-methoxycarbonyl-5-(N-formyl-N-methylaminomethyl)benzenesulfonamide sodium salt] | 40 | 80 | 20 | 60 |  |  |  |  |  |  |  |  |  |  |  |  |  |  |
| COC(=O)c1ccc(NC(C)=O)cc1S(=O)(=O)NC(=O)Nc1nc(OC)cc(OC)n1.[Na] [A3, N-(4,6-Dimethoxypyrimidin-2-ylaminocarbonyl)-2-methoxycarbonyl-5-acetylaminobenzenesulfonamide sodium salt] | 60 | 95 | 30 | 65 |  |  |  |  |  |  |  |  |  |  |  |  |  |  |
| CCC(=O)N(C)c1ccc(C(=O)OC)c(S(=O)(=O)NC(=O)Nc2nc(OC)cc(OC)n2)c1.[Na] [A4, N-(4,6-Dimethoxypyrimidin-2-ylaminocarbonyl)-2-methoxycarbonyl-5-(N-methyl-N-propionylamino)benzenesulfonamide sodium salt] |  | 30 |  | 15 | 80 | 40 |  |  |  |  |  |  |  |  |  |  |  |  |
| COC(=O)c1ccc(N(C)C(=O)C(C)C)cc1S(=O)(=O)NC(=O)Nc1nc(OC)cc(OC)n1.[Na] [A5, N-(4,6-Dimethoxypyrimidin-2-ylaminocarbonyl)-2-methoxycarbonyl-5-(N-isopropionylmethylamino)benzenesulfonamide sodium salt] |  | 25 |  | 5 | 50 | 20 | 98 | 100 | 100 | 98 | 100 | 100 | 95 | 99 | 100 | 85 | 99 | 100 |
| COC(=O)NCc1ccc(C(=O)OC)c(S(=O)(=O)NC(=O)Nc2nc(OC)cc(OC)n2)c1.[Na] [A6, N-(4,6-Dimethoxypyrimidin-2-ylaminocarbonyl)-2-methoxycarbonyl-5-(N-methoxycarbonylaminomethyl)benzenesulfonamide sodium salt] |  | 30 |  | 15 | 85 | 40 | 99 | 100 | 100 | 99 | 100 | 100 | 99 | 100 | 100 | 80 | 90 | 100 |
